This is an account of results in patent US12377095B2, “Use of ligustrazine nitrone derivatives in treatment and prevention of diabetic complication diseases” (QINGDAO HAILAN PHARMACEUTICALS CO., LTD., priority 2019, dated 2025).

The test system of experiment [1] is STZ-induced DKD rats. The experiment can be described thus: Body weight, water intake and food intake of STZ-induced DKD rats. In kind it is in vivo, rat. As for the experimental part:
(§1) SD rats (200±10 g) were used as model animals, which were fasted for 12 h before injection. STZ was dissolved in citrate buffer at 1% concentration, and rats were fasted and intraperitoneally injected with 55 mg/kg STZ and placed in the cage, the rats being ensured with adequate water intake for 24 h. STZ injections need to be fast and complete within 10 minutes of injection. The normal control group was injected with an equal volume of pH 4.5 citric acid-sodium citrate buffer. The state of the animals (multiple drinking and polyuria) was observed. After 3 weeks of STZ injection, blood was collected from the tail vein, and fasting blood glucose ≥16.7 mmol/L was measured as the standard for diabetic nephropathy in rats.
(§2) DKD rats were randomly assigned to 6 groups and given with different drugs. After 6 weeks of administration, the experiment was terminated and the protective effect of the drug on DKD rats was observed.
The general condition and body weight changes after rat modeling were observed weekly. The general conditions include the activity, mental state, coat color, diet, water intake and urine volume of the rats. The amount of water and the amount of feed were recorded weekly.

The test system of experiment [2] is STZ-induced DKD rats. The experiment can be described thus: Retinopathy of STZ-induced DKD rats. In kind it is in vivo, rat. The settings on record: DKD rats after treatment, Table 1 (FIG. 5). As for the experimental part:
as §1, §2
During the experiment, the retinopathy of rats was observed during daily administration, and the dates of retinopathy in different groups of rats were recorded.

In experiment [3] the test system is STZ-induced DKD rats. The experiment can be described thus: Blood glucose and urine protein in STZ-induced DKD rats. In kind it is in vivo, rat. As for the experimental part:
as §1, §2
During the experiment, the blood glucose of the rats was monitored after the completion of the modeling and after the completion of the administration, and urine protein was collected once at 24 hour.

The test system of experiment [4] is STZ-induced DKD rats. The experiment can be described thus: Serum biochemical parameters of STZ-induced DKD rats. The settings on record: six weeks after administration, dose-dependent. In kind it is in vivo, rat. As for the experimental part:
as §1, §2
Six weeks after the administration, the rats were anesthetized, and the blood was taken from the abdominal aorta, and, after standing for 1 hour, was centrifuged at 3000 rmp for 10 min and stored at −70° C. Serum levels of creatinine, urea nitrogen, cholesterol and triglycerides were measured using an automated biochemical analyzer.

Experiment [5] relates to STZ-induced DKD rats. The experiment can be described thus: Kidney index of STZ-induced DKD rats. In kind it is in vivo, rat. The conditions noted are these: after 6 weeks of administration. As for the experimental part:
as §1, §2
After 6 weeks of administration, the kidney tissue was uniformly separated by an autoclave surgical instrument, and washed with normal saline. After the filter paper was blotted, the fine balance was weighed, and then stored in a refrigerator at −80° C. for use. Kidney index (relative to kidney weight) is kidney weight (mg)/body weight (g)[…].

In the next experiment the test system is EPO mRNA. The experiment can be described thus: EPO mRNA by RT-PCR in CoCl2-induced HepG2 cell hypoxia model. The settings on record: hypoxia model caused by cobalt dichloride, concentration not given.
The test system of experiment [6] is STZ-induced DKD rats. The experiment can be described thus: HE staining of kidney tissue, STZ-induced SD rat DKD model. In kind it is in vivo. The settings on record: 10 mg/kg i.g. once/day, 6 weeks. As for the experimental part: (§3) Before the injection, the rats were fasted for 12 hours without water. After weighing, the rats were injected with 55 mg/kg STZ intraperitoneally (STZ needs to be injected quickly, and the injection was completed within 10 minutes), and then returned to the cage to ensure that the rats had sufficient drinking water for 24 hours. Rats were injected with an equal volume of citrate buffer (pH 4.5). After STZ injection for 3 weeks, blood was collected from the tail vein, and blood glucose ≥16.7 mmol/L was used as the criteria for the standard of the rats.
(§4) The route of administration is intragastric administration. TBN was administered twice a day (fixed at 9:00-10:00 am and 3:00-4:00 pm), and Losartan was administered once a day (fixed at 9:00-10:00 am) continuously for 6 weeks.
At the end of the experiment, kidney tissues were quickly separated, fixed with 4% paraformaldehyde and embedded in paraffin, serially sliced, 5 μm each, dried at 37° C. for 1 h, and then stained with hematoxylin and eosin (HE). The process is briefly as follows: paraffin sections were taken out of the 65° C. oven and immediately put in xylene to dewax and rehydrated with gradient alcohol, stained with hematoxylin staining solution for 10 minutes, and microscopically controlled alcohol differentiation with 1% hydrochloric acid was performed until the chromatin of the nucleus and the nucleus becomes clear; 1% ammonia water-ethanol solution is blue; 0.5% eosin Y-ethanol solution is stained for 3 min, and finally dehydrated routinely, mounted, and the tissue morphology changes are observed under a light microscope. […] The glomerular volume of rats in the DKD group of the Vehicle group increased, the mesangial area was diffusely widened, the mesangial cells were proliferated, the capillary loops were expanded, the mesangial matrix increased, and the glomerular capillary basement membrane was irregularly thickened. Renal pathological changes such as vacuole deformation, shedding of renal tubular epithelial cells and infiltration of a large number of inflammatory cells (FIG. 9A).

For experiment [7], the system named is STZ-induced DKD rats. The experiment can be described thus: PAS staining, glomerular sclerosis index, STZ-induced DKD rats. In kind it is in vivo, rat. The conditions noted are these: all doses of TBN (10, 30, 60 mg/kg twice/day); Losartan 10 mg/kg once/day; 6 weeks; P<0.001 vs Vehicle. As to the method:
as §3, §4
At the end of the experiment, kidney tissues were quickly separated, fixed with 4% paraformaldehyde and embedded in paraffin, serially sliced, 5 μm each, dried at 37° C. for 1 h, and then stained with PAS. The process is briefly as follows: paraffin sections are taken out of the 65° C. oven and immediately placed in xylene for deparaffinization and gradient alcohol rehydration, followed by periodic acid treatment for 5 min and Schiff treatment for 10 min, and then differentiation is performed with differentiation solution for 10 s. […]

The test system of experiment [8] is STZ-induced DKD rats. The experiment can be described thus: Masson staining, interstitial fibrosis index, STZ-induced DKD rats. In kind it is in vivo, rat. The settings on record: 10 mg/kg once/day, P<0.05 vs vehicle. As for the experimental part:
as §3, §4
At the end of the experiment, the kidney tissues were quickly separated, fixed with 4% paraformaldehyde and embedded in paraffin, serially sliced, 5 μm each, dried at 37° C. for 1 h, and then subjected to Masson staining. The process is briefly as follows: paraffin sections are taken out of the 65° C. oven and immediately put in xylene for dewaxing and gradient alcohol rehydration, according to the kit instructions, add reagent A (a mixture of equal amounts of A1 and A2) for dyeing for 8 min; then use Reagent B differentiates and reagent C turns blue; reagent D stains for 7 min; reagent E washes for 1 min; reagent F washes for 1 min; reagent G stains for 1 min; dehydrated with 95% ethanol and absolute ethanol, transparent xylene, sealed with neutral gum piece.

The test system of experiment [9] is db/db mice. The experiment can be described thus: 24 h urine microalbumin in db/db mice. In kind it is in vivo, mouse. The settings on record: 10 mg/kg once/day, 6 weeks, P<0.001. An excerpt:
db/db mice are congenital obese type 2 DKD mice with spontaneous mutations in the leptin receptor (Leptin receptor, Lepr) due to a point mutation in the leptin receptor gene GT located on chromosome 4. The course of polyphagia, polyuria, diabetes and hyperglycemia is similar to that of humans, and it is currently the most widely used type 2 spontaneous animal model of DKD. The db/db mice have a series of complications with the aggravation of diabetes. The main pathological changes of renal tissue are the expansion of the glomerular mesangial interstitium, the thickening of the glomerular basement membrane, and the excessive accumulation of extracellular matrix. However, the glomerular mesangium of db/db mice changes relatively slowly, and the glomerular mesangium will not be dissolved or nodular glomerulosclerosis, and there is no progressive renal insufficiency. […]
db/db mice were tested for 24 h urine microalbumin in the 4th and 6th week after drug treatment. […] The absorbance value (OD value) was measured at 450 nm wavelength; the blank control hole was used for adjusting zero, the microalbuminuria standard concentration was used as the abscissa, the OD value as the ordinate, the standard curve regression equation was calculated, and on the basis of the regression equation and the sample's OD value, the concentration of the sample was determined.

Experiment [10] deals with db/db mice. The experiment can be described thus: Electron microscopy of kidney tissue in db/db mice. In kind it is in vivo, mouse. The conditions noted are these: 10 mg/kg, 6 weeks (TBN P<0.05; Losartan P<0.01). An excerpt: db/db mice are congenital obese type 2 DKD mice with spontaneous mutations in the leptin receptor (Leptin receptor, Lepr) due to a point mutation in the leptin receptor gene GT located on chromosome 4. The course of polyphagia, polyuria, diabetes and hyperglycemia is similar to that of humans, and it is currently the most widely used type 2 spontaneous animal model of DKD. The db/db mice have a series of complications with the aggravation of diabetes. The main pathological changes of renal tissue are the expansion of the glomerular mesangial interstitium, the thickening of the glomerular basement membrane, and the excessive accumulation of extracellular matrix. However, the glomerular mesangium of db/db mice changes relatively slowly, and the glomerular mesangium will not be dissolved or nodular glomerulosclerosis, and there is no progressive renal insufficiency.
Six-week-old db/db mice were purchased, and start the administration after adaptive feeding for 1 week (i.e., 7-week-old). TBN is administered twice a day (fixed by starting from 9:00-10:00 am and 3:00-4:00 pm, with an interval of 6 hours), and the positive control drug Losartan was administered once a day (fixed at 9:00-10:00 am) for 6 weeks.
After the mice were executed, the renal cortex was quickly taken with sharp blade (performed on ice); fixed with 2.5% glutaraldehyde (pH 7.4) at 4° C. for 6 h; then fixed for 2 h in a stationary liquid having 1:1 of 0.2 mmol/L PBS and 2% osmic acid, and dehydrated with gradient acetone at 4° C., 10 min for each of 50%, 70%, 90% acetone, then dehydrated with 100% acetone at room temperature twice, each time 15 min; in 1:1 acetone and Epon812 epoxy resin embedded mixed liquid, soaked at room temperature for 30 min; then dipped through the pure furnishings overnight, the embedding agent was made enveloping into tissue blocks completely to replace the dehydrating agent; the samples were embedded in the embedder for ultra-thin slicing, placed at 35° C. for 12 h; placed at 45° C. for 12 h; placed at 60° C. for 48 h; placed in a 37° C. oven for 36 h, in a 60° C. oven for 36 h; 1.5 μm semi-slice was prepared with an ultra-thin slicer; positioning under optical microscope, a trapeter having a top area of about 1 mm^2 was shaped to prepare 60-70 nm thick ultra-thin slices; dyed in dark with acetate hydroxide liquid for 10 min, and dyed in lead-stained citrate for 10 min.

The subject of experiment [11] is db/db mice. The experiment can be described thus: Urinary albumin/creatinine ratio in db/db mice, TBN alone and in combination. In kind it is in vivo, mouse. The conditions noted are these: TBN 30 mg/kg, Losartan 10 mg/kg, TBN+Losartan (FIG. 17). As to the method:
Grouping and dosing are the same as in Example 9. At the end of the experiment, 24 h urine samples were collected, antiseptic treatment was performed to all urine specimens with toluene, 24 h urine was centrifuged to remove precipitation and placed in a 1.5 mLEP tube and then placed in a refrigerator at −20° C. for later use, urinary albumin content was measured with ELISA kits, urine creatinine levels were detected by use of an automatic biochemical analyzer, and the ratio of both was calculated. The results as shown in FIG. 19 indicate that the ratio of urinary microalbumin to creatinine in DB/DB group was higher than that in wt/wt group, and the db/db mice 24 h urinary albumin creatinine ratio decreased in TBN group, losartan group and TBN-losartan combination group. Referring to this method, metformin (150 mg/kg, qd), and HIF-PH inhibitor roxadustat (10 mg/kg, once 2 every days) were given via oral administration, the combination groups of TBN with respectively metformin and roxadustat also reduce 24 h urinary albumin creatinine ratio.

Each structure is given as a SMILES string.

On to `Cc1nc(/C=[N+](\[O-])C(C)(C)C)c(C)nc1/C=[N+](\[O-])C(C)(C)C` [TN-2], for which the body weight result with STZ-induced DKD rats [1] (STZ-induced diabetic nephropathy rats, FIG. 1a) was “no effect”. The water intake entry in the experiment on STZ-induced DKD rats [1] (vs model group, FIG. 1b) is given as “significantly lower”. Further, the food intake result in the experiment with STZ-induced DKD rats [1] (vs model group, FIG. 1c) is on record as “significantly lower”. In addition, in the experiment with STZ-induced DKD rats [2], the number of retinopathy entry was “reduced” and the “time when retinopathy occurred” value is “relatively delayed”. Moreover, in the experiment with STZ-induced DKD rats [3] (24 hour urine, DKD rats), the “urinary protein content in urine” value was “significantly reduced”. In addition, in the experiment with STZ-induced DKD rats [3] (after 6 weeks of treatment), the blood glucose entry is “significantly decreased”. For the same compound, in the experiment with STZ-induced DKD rats [4], the serum cholesterol result is “significantly reduce”, the serum creatinine entry is given as “significantly reduce”, the serum triglyceride result was “significantly reduce” and the serum urea nitrogen result is on record as “significantly reduce”. In the experiment on STZ-induced DKD rats [5], the kidney index entry is recorded as “significantly reduced”. Besides, the “expression of EPO mRNA” value in the experiment with EPO mRNA is recorded as “increase”.
Consider `CCCCc1nc(Cl)c(CO)n1Cc1ccc(-c2ccccc2-c2nn[nH]n2)cc1` [Losartan, reference compound], for which, in the experiment with STZ-induced DKD rats [6], the glomerular area entry is given as “did not significantly reduce” and the “renal tissue damage (HE)” value was “improved”. The glomerular sclerosis index entry in the experiment with STZ-induced DKD rats [7] was “significantly reduce”. In addition, the interstitial fibrosis index entry with STZ-induced DKD rats [8] was “significantly reduced”. Moreover, the “24 h urine microalbumin production” value in the experiment with db/db mice [9] was “significantly reduced”. For the same compound, the “thickness of the glomerular base film” value in the experiment on db/db mice [10] is on record as “significantly reduced”. For the same compound, in the experiment with db/db mice [11], the “24 h urinary albumin creatinine ratio” value is “decreased”.
